Test results reported in patent US5444061A, “Anti-cancer compounds” (British Technology Group Limited, priority 1991, dated 1995).

Legend:
[1] = particularly in relation to the liver and kidneys; cited from earlier work
[2] = tested on: human breast, ovarian and liver cancer; conditions: humans; cited from earlier work
[3] = In vivo stability to cleavage of the central amide linkage of the dipeptide (i.p., mice); set-up: species or system mouse (male C57/DBA2 F1 hybrid); conditions: 100 mg/kg i.p., 1 hour; for Stability (cleavage of the central amide linkage of the dipeptide): based on dipeptide and cleavage product found in plasma and liver
Description: In vivo tests in mice at a dosage of 100 mg/kg with various compounds according to the invention have shown a substantial lack of cleavage of the central amide linkage of the dipeptide as assessed by measurement of the amount of the cleavage product as a percentage of the total of parent compound and cleavage product present in the liver or plasma of a mouse sacrificed 1 hour after intraperitoneal administration of the dipeptide, i.e. cleavage was within the limit of experimental detection which is about 5%. Although a minor degree of cleavage of this amide linkage of the quinazoline is acceptable when it is used in practice, a level of cleavage on administration in vivo of less than 10% is preferred, with no more than about 5% being desirable, especially 2% or 1% or less.
The four compounds were also tested for in vivo stability to cleavage of the central amide linkage of the dipeptide. This test comprised injecting the compound intraperitoneally into male C57/DBA2 (F1 hybrid) mice at a standard dosage rate of 100 mg/kg, sacrificing the animals after 1 hour, removing the plasma, liver and kidneys, homogenising these individually in nine times the volume of 0.1 M Tris HCl at pH 10, precipitating the protein and analysing the product in 0.05 M NaHCO3 by hplc on a Sperisorb C-6 column eluting with acetonitrile/sodium acetate of pH 5.0. UV measurements at 280 and 313 nm were used to detect the dipeptide and the breakdown product of cleavage at the central amide bond of the dipeptide, i.e. the L-glutamic acid derivative or D-glutamic acid derivative. Identification of the parent compound and any breakdown product was effected by Rt comparisons against standard samples of these compounds which have been subjected to the same treatment as the liver, kidney and plasma samples.
The results obtained are shown in the Table, the identification of a compound which is "not cleaved" as compared with a compound which is "cleaved" being made on the basis of the amount of the dipeptide and its cleavage product found in the plasma and the liver.

[4] = tested on: L1210 cell line; assay: Inhibition of growth of the leukaemia cell line L1210 in cell culture; type: cell-based; conditions: Mus musculus
Text: The test may be similar to that described in UK Patent Specification No. 2065653B; and […]

[5] = tested on: MCF-7 cell line; assay: Inhibition of growth of the human breast cancer cell line MCF-7 in cell culture; type: cell-based; conditions: MCF7, MCF-7 cell culture, read-out: IC50 against the MCF-7 cell line
Text: The test may be similar to that described by Lippman et al (Cancer Res., 1976, 36, 4595).

| SMILES | Stability (cleavage of the central amide linkage of the dipeptide) [3] | IC50 [4] [nM] | location of the remaining part of the parent dipeptide which was detected [3] | cleavage product in the liver, as a percentage of the total drug administered ([3]; liver, typical experiment) | parent dipeptide present in the liver, as a percentage of the total drug administered ([3]; liver, typical experiment) [%] | IC50 [5] [nM] | toxicity in humans [1] | activity against human breast, ovarian and liver cancer [2] | cleavage product accompanying the parent dipeptide in the plasma [3] |
| --- | --- | --- | --- | --- | --- | --- | --- | --- | --- |
| C#CCN(Cc1ccc2nc(N)[nH]c(=O)c2c1)c1ccc(C(=O)N[C@@H](CCC(=O)O)C(=O)O)cc1 [CB3717] |  |  |  |  |  |  | shows symptoms of toxicity in humans, particularly in relation to the liver and kidneys | promising activity against human breast, ovarian and liver cancer |  |
| C#CCN(Cc1ccc2nc(C)nc(O)c2c1)c1ccc(C(=O)N[C@H](CCC(=O)N[C@H](CCC(=O)O)C(=O)O)C(=O)O)cc1 [Example 10, N-p-[N-(3,4-dihydro-2-methyl-4-oxoquinazolin-6-ylmethyl)-N-(prop-2-ynyl)amino]benzoyl-D-γ-glutamyl-D-glutamic acid] | not cleaved | 1300 |  |  |  |  |  |  |  |
| C#CCN(Cc1ccc2nc(C)nc(O)c2c1)c1ccc(C(=O)N[C@@H](CCC(=O)N[C@@H](CCC(=O)O)C(=O)O)C(=O)O)cc1 [L-glu-L-glu] | cleaved | 100 | found mostly in the plasma |  | 1.6±0.8 |  |  |  | a significant amount of the cleavage product |

More lines, main results first:

| Stability (cleavage of the central amide linkage of the dipeptide) [3] | IC50 [4] [nM] | location of the remaining part of the parent dipeptide which was detected [3] | cleavage product in the liver, as a percentage of the total drug administered ([3]; liver, typical experiment) | parent dipeptide present in the liver, as a percentage of the total drug administered ([3]; liver, typical experiment) [%] | IC50 [5] [nM] | SMILES | toxicity in humans [1] | activity against human breast, ovarian and liver cancer [2] | cleavage product accompanying the parent dipeptide in the plasma [3] |
| --- | --- | --- | --- | --- | --- | --- | --- | --- | --- |
| cleaved | 3400 |  |  |  |  | C#CCN(Cc1ccc2nc(C)[nH]c(=O)c2c1)c1ccc(C(=O)N[C@H](CCC(=O)N[C@@H](CCC(=O)O)C(=O)O)C(=O)O)cc1 [D-glu-L-glu] |  |  |  |
| not cleaved | 180 | found mostly in the plasma | no cleavage product | 27±2 | 300 | C#CCN(Cc1ccc2nc(C)nc(O)c2c1)c1ccc(C(=O)N[C@@H](CCC(=O)N[C@H](CCC(=O)O)C(=O)O)C(=O)O)cc1 [Example 1, N-p-[N-(3,4-Dihydro-2-methyl-4-oxoquinazolin-6-ylmethyl)-N-(prop-2-ynyl)amino]benzoyl-L-γ-glutamyl-D-glutamic acid] |  |  | no cleavage product |
